{
  "source": "paper PMC10287555",
  "about": "“Camonsertib in DNA damage response-deficient advanced solid tumors: phase 1 trial results” (Nature Medicine, 2023)",
  "key": {"[1]": {"assay": "Dose-limiting toxicities (DLTs), TRESR phase 1 module 1", "format": "in vivo", "description": "The starting dose of camonsertib was 5 mg administered on a 5-d-on, 2-d-off (5/2) schedule given once daily (QD) in 21-d cycles. Dose escalation proceeded until a total daily dose of 160 mg was achieved. Per protocol, based on emerging safety, PK and PD data, an alternative schedule of 3 d on, 4 d off (3/4) was then started at a daily dose of 120 mg and escalated to 200 mg, and 160 mg QD (3/4) of camonsertib was proposed as the preliminary RP2D based on long-term (>6 weeks) safety, tolerability, PK and PD data. The dose-limiting toxicity (DLT) rate at the proposed preliminary RP2D was 8% (2/25). All DLTs comprised hematologic toxicities (Table 2).\nPatients were treated with single-agent camonsertib at doses ranging from 5–160 mg QD to 40–80 mg twice daily, administered orally on a 5/2 or 3/4 weekly schedule. An intermittent schedule of 2 weeks on/1 week off was also evaluated at dose levels of 160 mg and 200 mg QD (3/4). Each cycle comprised 21 d of treatment. Module 1 dose-escalation decisions based on patients in M1a and M1b cohorts were governed by the Bayesian optimal interval (BOIN) design starting with single-patient cohorts in M1a. […] Escalation of M1a and M1b occurred in parallel until the maximum tolerated dose (MTD) […] RP2D was determined for each schedule. Backfill cohorts were employed to (1) aid in the assessment of possible anti-tumor activity in a subset of patients with a specific gene abnormality or tumor type; (2) allow additional PK/PD evaluation; and (3) further assess drug-related toxicities. Patient safety review and dose decisions were carried out by a Safety Review Committee, comprised of the study investigators and sponsor representatives.\nAll safety and efficacy endpoints were summarized with descriptive statistics. Safety data were summarized using the safety population, which consisted of all patients who received at least one dose of RP-3500. The DLT rate was based on the DLT-evaluable population, which included those patients in dose-escalation cohorts (M1a and M1b only) receiving ≥80% of planned doses of camonsertib, who completed all required safety evaluations and were observed through the end of cycle 1 or patients who experienced a DLT. Due to the different number of dose levels expected and the exploratory nature of the phase 1 study, anti-tumor activity parameters were primarily based on patients who received ≥1 dose of RP-3500 and had ≥1 post-baseline tumor assessment by RECIST 1.1 and/or GCIG CA-125 or PCWG3 PSA criteria, with an initial dose level of >100 mg d^−1 (dose level predicted to achieve efficacious exposure), as defined in the statistical analysis plan. Additional subgroups based on tumor types or genotypes of interest were based on this efficacy analysis set. […] Patients were, therefore, enrolled in the study and endpoints assessed regardless of sex, gender and race. No formal statistical tests were performed in this study. However, nominal P values (two-sided) were provided for the hypothesis-generating purpose of selected exploratory endpoints, without adjusting for multiplicity. A log-rank test was used in between-group comparisons for the time-to-event endpoints (PFS and DOT), and Fisher’s exact test was used in between-group comparisons for the binary endpoints (CBR, MR, etc.)."}, "[2]": {"assay": "Effect on QT interval", "parameters": "species or system human", "conditions": "in vivo", "description": "Tolerability and safety of camonsertib was evaluated by assessment of AEs, TEAEs, serious adverse events (SAEs), DLTs, concomitant medications and procedures, physical examinations, vital sign measurements, clinical safety laboratory evaluations (hematology, chemistry and urinalysis), ECOG performance status scores and electrocardiograms."}, "[3]": {"conditions": "3/4 schedule, 60 mg BID (n = 3)"}, "[4]": {"conditions": "3/4 schedule, 120 mg QD (n = 17)"}, "[5]": {"conditions": "3/4 schedule, 160 mg QD (n = 25)"}, "[6]": {"conditions": "3/4 schedule, 2/1w, 160 mg QD (n = 25)"}, "[7]": {"conditions": "3/4 schedule, 2/1w, 200 mg QD (n = 5)"}, "[8]": {"conditions": "5/2 schedule, 40 mg BID (n = 1)"}, "[9]": {"conditions": "5/2 schedule, 100 mg QD (n = 4)"}, "[10]": {"conditions": "5/2 schedule, 120 mg QD (n = 4)"}, "[11]": {"conditions": "5/2 schedule, 160 mg QD (n = 3)"}, "[12]": {"conditions": "5/2 schedule, 5–80 mg QD (n = 5)"}},
  "note": "Entries after “also recorded” stand apart in the source; their conditions may differ.",
  "data": [
    {"smiles": "C[C@@H]1COCCN1c1cc([C@]2(O)C[C@H]3CC[C@@H](C2)O3)c2cnn(-c3cc[nH]n3)c2n1", "note": "[camonsertib]", "values": [
      {"measurement": "DLT rate at the proposed preliminary RP2D", "setting": "[1]; 160 mg QD (3/4), 2/25", "result": 8, "unit": "%"},
      {"measurement": "Any DLT event", "setting": "[1]; [3]", "result": "1 (33.3) n (%)"},
      {"measurement": "DLT: Anemia", "setting": "[1]; [3]", "result": "1 (33.3) n (%)"},
      {"measurement": "DLT: Febrile neutropenia", "setting": "[1]; [3]", "result": "0 n (%)"},
      {"measurement": "DLT: Neutrophil count decreased", "setting": "[1]; [3]", "result": "0 n (%)"},
      {"measurement": "DLT: Platelet count decreased", "setting": "[1]; [3]", "result": "0 n (%)"},
      {"measurement": "Any DLT event", "setting": "[1]; [4]", "result": "1 (5.9) n (%)"},
      {"measurement": "DLT: Anemia", "setting": "[1]; [4]", "result": "1 (5.9) n (%)"},
      {"measurement": "DLT: Febrile neutropenia", "setting": "[1]; [4]", "result": "0 n (%)"},
      {"measurement": "DLT: Neutrophil count decreased", "setting": "[1]; [4]", "result": "0 n (%)"},
      {"measurement": "DLT: Platelet count decreased", "setting": "[1]; [4]", "result": "0 n (%)"},
      {"measurement": "Any DLT event", "setting": "[1]; [5]", "result": "2 (8.0) n (%)"},
      {"measurement": "DLT: Anemia", "setting": "[1]; [5]", "result": "2 (8.0) n (%)"},
      {"measurement": "DLT: Febrile neutropenia", "setting": "[1]; [5]", "result": "0 n (%)"},
      {"measurement": "DLT: Neutrophil count decreased", "setting": "[1]; [5]", "result": "0 n (%)"},
      {"measurement": "DLT: Platelet count decreased", "setting": "[1]; [5]", "result": "0 n (%)"},
      {"measurement": "Any DLT event", "setting": "[1]; [6]", "result": "2 (8.0) n (%)"},
      {"measurement": "DLT: Anemia", "setting": "[1]; [6]", "result": "1 (4.0) n (%)"},
      {"measurement": "DLT: Febrile neutropenia", "setting": "[1]; [6]", "result": "0 n (%)"},
      {"measurement": "DLT: Neutrophil count decreased", "setting": "[1]; [6]", "result": "1 (4.0) n (%)"},
      {"measurement": "DLT: Platelet count decreased", "setting": "[1]; [6]", "result": "0 n (%)"},
      {"measurement": "Any DLT event", "setting": "[1]; [7]", "result": "1 (20.0) n (%)"},
      {"measurement": "DLT: Anemia", "setting": "[1]; [7]", "result": "1 (20.0) n (%)"},
      {"measurement": "DLT: Febrile neutropenia", "setting": "[1]; [7]", "result": "1 (20.0) n (%)"},
      {"measurement": "DLT: Neutrophil count decreased", "setting": "[1]; [7]", "result": "0 n (%)"},
      {"measurement": "DLT: Platelet count decreased", "setting": "[1]; [7]", "result": "1 (20.0) n (%)"},
      {"measurement": "Any DLT event", "setting": "[1]; [8]", "result": "0 n (%)"},
      {"measurement": "DLT: Anemia", "setting": "[1]; [8]", "result": "0 n (%)"},
      {"measurement": "DLT: Febrile neutropenia", "setting": "[1]; [8]", "result": "0 n (%)"},
      {"measurement": "DLT: Neutrophil count decreased", "setting": "[1]; [8]", "result": "0 n (%)"},
      {"measurement": "DLT: Platelet count decreased", "setting": "[1]; [8]", "result": "0 n (%)"},
      {"measurement": "Any DLT event", "setting": "[1]; [9]", "result": "2 (50.0) n (%)"},
      {"measurement": "DLT: Anemia", "setting": "[1]; [9]", "result": "1 (25.0) n (%)"},
      {"measurement": "DLT: Febrile neutropenia", "setting": "[1]; [9]", "result": "0 n (%)"},
      {"measurement": "DLT: Neutrophil count decreased", "setting": "[1]; [9]", "result": "0 n (%)"},
      {"measurement": "DLT: Platelet count decreased", "setting": "[1]; [9]", "result": "1 (25.0) n (%)"},
      {"measurement": "Any DLT event", "setting": "[1]; [10]", "result": "0 n (%)"},
      {"measurement": "DLT: Anemia", "setting": "[1]; [10]", "result": "0 n (%)"},
      {"measurement": "DLT: Febrile neutropenia", "setting": "[1]; [10]", "result": "0 n (%)"},
      {"measurement": "DLT: Neutrophil count decreased", "setting": "[1]; [10]", "result": "0 n (%)"},
      {"measurement": "DLT: Platelet count decreased", "setting": "[1]; [10]", "result": "0 n (%)"},
      {"measurement": "Any DLT event", "setting": "[1]; [11]", "result": "0 n (%)"},
      {"measurement": "DLT: Anemia", "setting": "[1]; [11]", "result": "0 n (%)"},
      {"measurement": "DLT: Febrile neutropenia", "setting": "[1]; [11]", "result": "0 n (%)"},
      {"measurement": "DLT: Neutrophil count decreased", "setting": "[1]; [11]", "result": "0 n (%)"},
      {"measurement": "DLT: Platelet count decreased", "setting": "[1]; [11]", "result": "0 n (%)"},
      {"measurement": "Any DLT event", "setting": "[1]; [12]", "result": "0 n (%)"},
      {"measurement": "DLT: Anemia", "setting": "[1]; [12]", "result": "0 n (%)"},
      {"measurement": "DLT: Febrile neutropenia", "setting": "[1]; [12]", "result": "0 n (%)"},
      {"measurement": "DLT: Neutrophil count decreased", "setting": "[1]; [12]", "result": "0 n (%)"},
      {"measurement": "DLT: Platelet count decreased", "setting": "[1]; [12]", "result": "0 n (%)"},
      {"measurement": "Preliminary recommended phase 2 dose (RP2D)", "setting": "[1]; QD, 3 d on/4 d off (weekly on days 1–3)", "result": 160, "unit": "mg"},
      {"measurement": "Any DLT event", "setting": "[1]; Total DLT evaluable (n = 92)", "result": "9 (9.8) n (%)"},
      {"measurement": "DLT: Anemia", "setting": "[1]; Total DLT evaluable (n = 92)", "result": "7 (7.6) n (%)"},
      {"measurement": "DLT: Febrile neutropenia", "setting": "[1]; Total DLT evaluable (n = 92)", "result": "1 (1.1) n (%)"},
      {"measurement": "DLT: Neutrophil count decreased", "setting": "[1]; Total DLT evaluable (n = 92)", "result": "1 (1.1) n (%)"},
      {"measurement": "DLT: Platelet count decreased", "setting": "[1]; Total DLT evaluable (n = 92)", "result": "2 (2.2) n (%)"},
      {"measurement": "Effect on QT interval (ΔQTcF)", "setting": "[2]", "result": "No effect on QT interval was observed; also recorded: do not affect"}
    ]}
  ]
}
